# Bridge positions count the residues as written; N and C are the ends. Peptide text beside a SMILES is read from it.
# Key:
# [1] = target: T1, potassium channel Kv1.3 (Homo sapiens, UniProt P22001); test: whole-cell patch clamp, inhibition of Kv1.3 current in transfected COS-7 cells; type: cell-based; details: potassium channel Kv1.3 in COS-7 cells, read-out: polypeptide concentrations that inhibit the current by half (IC50 value)
# T1 construct: expressed in transfected cells; host or cells: COS-7 cells, selected with 0.8 mg/mL geneticin
# T1 sequence (P22001 whole entry): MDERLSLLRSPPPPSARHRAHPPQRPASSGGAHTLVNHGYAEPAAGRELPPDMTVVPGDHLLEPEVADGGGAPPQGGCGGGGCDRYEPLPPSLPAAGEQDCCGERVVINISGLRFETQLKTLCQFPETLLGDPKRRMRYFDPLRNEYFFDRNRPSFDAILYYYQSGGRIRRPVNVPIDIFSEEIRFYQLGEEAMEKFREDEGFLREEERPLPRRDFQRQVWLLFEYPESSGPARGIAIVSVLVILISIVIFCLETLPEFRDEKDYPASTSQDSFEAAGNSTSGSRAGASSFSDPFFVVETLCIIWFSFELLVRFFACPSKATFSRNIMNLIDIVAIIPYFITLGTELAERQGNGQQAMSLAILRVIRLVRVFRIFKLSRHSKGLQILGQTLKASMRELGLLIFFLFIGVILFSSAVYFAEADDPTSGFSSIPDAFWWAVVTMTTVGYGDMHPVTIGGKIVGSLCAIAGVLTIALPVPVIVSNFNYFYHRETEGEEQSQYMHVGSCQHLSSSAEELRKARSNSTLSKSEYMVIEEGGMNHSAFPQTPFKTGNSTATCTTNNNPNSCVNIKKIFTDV
# Method: COS-7 cells were cultured in a DMEM medium containing 10% fetal calf serum, at 37° C, 5% CO2. The recombinant plasmids of potassium channel Kv1.3 were transfected by using a Sofast™ transfection kit, and the transfected cells were selectively cultured in a medium containing 0.8 mg/mL geneticin. The pharmacological activities of scorpion active polypeptides ADMR-011, ADMR-016, ADMR-019, ADMR-023 and ADMR-028 were tested and analyzed by using an instrument of whole-cell patch clamp (EPC-10 dual-channel patch clamp amplifier HEKA, Elektronik, Lambrecht, Germany). The setting of the experimental parameters, the collecting of data, and the applying of stimulus were all controlled by Pulse software (Elektronik, Lambrecht, Germany). The filter of the instrument was set to be 10 kHz (Bessel), and the electrode impedance was 2∼5 MΩ. After the formation of giga-seal (1∼5 GΩ) between the electrode and cell membrane, an automatic c-fast was performed, and the membrane was broken by slightly applying negative pressure, then an automatic c-slow was performed. At a holding potential of -70 mV, depolarizing pulses, incrementing in 10 mV steps, with a step width of 80 ms , were given to stimulate from -60 mV to +50 mV, and the condition of current was observed. The polypeptides ADMR-011, ADMR-016 and ADMR-019 were accurately perfused, which was achieved by MPS-2 (INBIO Inc, Wuhan, China) perfusing system. After dissolving the three scorpion active polypeptides, they were applied by spraying via DAD Drug Application System (ALA), and the tip of the tube for drug application was about 100 µm away from the cell being recorded.
# It can be known from Figure 16 to Figure 20 that, the pharmacological activity of ADMR-011 on potassium channel Kvl.3 was 91 pM, the pharmacological activity of ADMR-016 on potassium channel Kvl.3 was 2.58 nM, the pharmacological activity of ADMR-019 on potassium channel Kv1.3 was 1.41 nM, and the pharmacological activity of ADMR-023 and ADMR-028 on potassium channel Kvl.3 were 0.49 nM and 0.65 nM, respectively. Therefore, they are polypeptides with potent activity that are currently found internationally.
# [2] = tested on: Wistar rat EAE model; test: EAE (multiple sclerosis) model in Wistar rats induced by GPSCH-CFA, clinical scoring; type: in vivo; details: 100 µg·kg^-1 subcutaneously once every day, x±s, n=10, score 0-5
# Excerpt: Experimental animals: female inbred line Wistar rats (6∼8 week old, body weigh 150±10 g) and guinea pigs (300∼400 g, purchased from Wuhan University Laboratory Animal Center) were selected.
# Formulating a mixed emulsion of whole spinal cord homogenate - Freund's complete adjuvant (GPSCH-CFA): a guinea pig was executed, and the spinal cord was rapidly removed, and prepared into 50% PBS homogenate by a ultrasonic disruptor (Sonics & Materials Inc, America), which was mixed with equal amount of Freund's complete adjuvant (BCG vaccine 10 mg/ml), and was pushed back and forth with syringes until forming a water-in-oil emulsion.
# Wistar rat EAE model induced by EAE: GPSCH-CFA emulsion was injected intradermally into the foot pads of both the hind legs of Wistar rats, or simultaneously injected intradermally about 1×10^10 pertussis vaccine. The rats were weighed every day, and observed for their neurological symptoms. Experimental autoimmune encephalomyelitis appeared after the rats had been raised for 2 weeks.
# The rats with experimental autoimmune encephalomyelitis (EAE) were divided into […] groups randomly: normal control group (negative control group), model control group (model rats + normal saline), administration group A (model rats + ADMR-011 polypeptide), administration group B (model rats + ADMR-016 polypeptide), administration group C (model rats + ADMR-019 polypeptide), administration group D (model rats + ADMR-023 polypeptide), and administration group E (model rats + ADMR-028 polypeptide), 10 rats for each group. For the administration groups, polypeptides ADMR-011, ADMR-016, ADMR-019, ADMR-023 and ADMR-028 were injected subcutaneously respectively at a dose of 100 µg·kg^-1, once every day in the morning. For the normal control group and the model control group, equivalent amount of normal saline was injected subcutaneously, and administered continuously. […] The highest clinical score for each animal was recorded, and the average value of them was taken to be the average clinical score.
# The scoring criteria were: without any clinical symptom, 0 point; disappearance of tension in the tail, and observable mild awkward gait, 1 point; weakness in both the hind limbs, which can recover after passive body flipping, 2 points; paralysis in both the hind limbs, which can not recover after passive body flipping, 3 points; tetraplegia accompanied by incontinence of urine and feces, 4 points; moribund state or death, 5 points. Table 1. Scores for rats of various experimental groups in the EAE model (-x±s)
# [3] = tested on: rheumatoid arthritis; test: pristane-induced rheumatoid arthritis in SD rats, joint score and hind foot plantar swelling; type: in vivo; parameters: key to Score of joint: clinical score 1-4: 1 joint red/swollen=1 ... severe whole-limb arthritis=4; details: x±s, n=10; for Score of joint: arthritis rats, polypeptides 100 µg·kg^-1 (methotrexate 1.75 µg·kg^-1) subcutaneously once every day, score 1-4; for The swelling degree after the inflammation: volume difference of hind foot before and after the modeling
# Method: […] Female (♀) specific pathogen free (SPF) inbred line SD rats (Wuhan University Laboratory Animal Center), body weight 150±10 g, were selected, and pristane was injected intradermally at the base of the tail of rats in experimental groups at a dose of 0.2 ml/rat, after they were acclimatized in a clean-grade environment for 1 week. Rheumatoid arthritis appeared after the rats were raised for only 2 weeks.
# The rats having arthritis were randomized into: normal control group (negative control group), model negative control group (model rat + normal saline), model positive control group (model rat + methotrexate), administration group A (model rat + ADMR-011 polypeptide), administration group B (model rat + ADMR-016 polypeptide), administration group C (model rat + ADMR-019 polypeptide), administration group D (model rat + ADMR-023 polypeptide), and administration group E (model rat + ADMR-028 polypeptide), 10 rats for each group. The administration groups were injected subcutaneously at a dose of 100 µg·kg^-1, once every day in the morning, and administered continuously; the normal control group and the model negative control group were injected subcutaneously with equivalent amount of normal saline; and the model positive control group were injected subcutaneously with methotrexate (MTX) at a dose of 1.75 µg·kg^-1, once every day, and administered continuously.
# The highest clinical score for each animal was recorded, and the average value of them was taken to be the average clinical score. The scoring criteria were: one joint of a rat was red and swollen, 1 point; two joints of a rat were red and swollen, 2 points; all the joints of a rat were red and swollen, 3 points; severe arthritis in the entire limb of a rat, 4 points. Table 2. Arthritis scores for rats of various experimental groups (-x±s)
# From day 8 of the experiment, the hind foot plantar volume of the rat was measured and recorded every other day for 21 consecutive days, and the swelling degree (mL) was calculated according to the volume difference before and after the modeling. Table 3. The swelling degree of rats in various experimental groups (-x±s)
# [4] = tested on: Kunming mice; test: toxicity study in mice, single intraperitoneal injection, 7 days observation; type: in vivo; details: 10 mg/kg intraperitoneally once (100 times the dose for animal model), observed 7 days
# Method: 18∼20 g Kunming mice were selected, and divided into 4 groups, 8 male mice and 8 female mice for each group. The lyophilized powders of scorpion active polypeptides ADMR-011, ADMR-016, ADMR-019, ADMR-023 and ADMR-028 were dissolved with normal saline respectively, and the 3 groups of mice were injected intraperitoneally once respectively with polypeptide solution at a dose of 10 mg/kg (100 times of the dose for animal model), and the fourth group were injected with equivalent amount of normal saline as control.
# After the administration, the respiration, motor and heartbeat in animals of all the groups were all normal, without significant abnormal reaction. 7 days after the administration, all the animals were conducted gross anatomy to observe the volume, color and texture of the main organs (heart, liver, spleen, lung, and kidney), and there was no macroscopic lesion. There were no significant difference between the 3 administration groups and the normal saline group.
compound,measurement,setting,value
"CC[C@H](C)[C@H](NC(=O)CNC(=O)[C@@H](N)C(C)C)C(=O)N[C@@H](CC(N)=O)C(=O)N[C@H](C(=O)N[C@@H](CCC(N)=O)C(=O)N[C@H]1CSSC[C@@H]2NC(=O)[C@H](CCC(N)=O)NC(=O)CNC(=O)[C@H](Cc3ccccc3)NC(=O)[C@H](CCCNC(=N)N)NC(=O)[C@H](CCSC)NC(=O)CNC(=O)[C@H](C)NC(=O)[C@H](CC(=O)O)NC(=O)[C@H](CCCCN)NC(=O)[C@@H]3CSSC[C@@H](C(=O)N[C@H](C(=O)N4CCC[C@H]4C(=O)N[C@@H](CCCCN)C(=O)O)[C@@H](C)O)NC(=O)[C@H](CC(=O)O)NC(=O)[C@H](CSSC[C@H](NC(=O)[C@H](CCC(N)=O)NC(=O)[C@H](CCCNC(=N)N)NC(=O)[C@H](CO)NC(=O)[C@H](Cc4c[nH]cn4)NC(=O)[C@H](CC(N)=O)NC1=O)C(=O)N[C@@H](CC(C)C)C(=O)N[C@@H](CCCCN)C(=O)N1CCC[C@H]1C(=O)N3)NC(=O)[C@H]([C@@H](C)O)NC(=O)CNC(=O)[C@H](CC(N)=O)NC(=O)[C@H]([C@@H](C)CC)NC2=O)C(C)C [ADMR-028] (H-VGINVQCNHSRQCLKPCKDAGMRFGQCINGTCDCTPK-OH; disulfide 7-27, 13-32, 17-34 (inferred); N-terminus and C-terminus assumed)",IC50,[1],0.65 nM
same,Average clinical scores,[2]; 8 d,0.49±0.12
same,Average clinical scores,[2]; 10 d,0.95±0.22
same,Average clinical scores,[2]; 12 d,1.09±0.37
same,Average clinical scores,[2]; 14 d,1.13±0.29
same,Score of joint,[3]; 10 d,1.79±0.55
same,Score of joint,[3]; 15 d,2.11±0.45
same,Score of joint,[3]; 21 d,1.79±0.63
same,The swelling degree after the inflammation,[3]; d8,0.037 ± 0.013 mL
same,The swelling degree after the inflammation,[3]; d15,0.28 ± 0.05 mL
same,The swelling degree after the inflammation,[3]; d22,0.38 ± 0.13 mL
same,The swelling degree after the inflammation,[3]; d28,0.31 ± 0.14 mL
same,toxicity in mice,[4],no significant toxicity

# Reference: patent EP2653477B1, “SCORPION ACTIVE PEPTIDES AND PREPARATION METHODS AND APPLICATIONS THEREOF” (Wuhan More Biotechnology Co., Ltd., priority 2010, dated 2012)
